Test results reported in patent publication US9222928B2, “Biphenol ether compounds as markers for liquid hydrocarbons and other fuels and oils” (Dow Global Technologies LLC, priority 2011, dated 2015).

## CCCCCCCCCCCCOc1ccccc1-c1ccccc1OCCCCCCCCCCCC [BDD-BBPh, 2,2′-Bis(dodecyloxy)-1,1′-biphenyl]
  melting point: 33 to 35 °C
